# PMC8750965, “The Isoquinoline-Sulfonamide Compound H-1337 Attenuates SU5416/Hypoxia-Induced Pulmonary Arterial Hypertension in Rats” (Cells, 2021)
# Experiments:
# [1] = tested on: phosphorylation of MLC in hPASMCs; test: Western blot of MLC phosphorylation in ET-1-stimulated hPASMCs; conditions: then ET-1 0.1 µM 1 h
# Method: Before stimulation, 2 × 10^5 hPASMCs were cultured with serum-starved medium (Humedia-SB containing 1% FBS and antibiotics [Kurabo]), followed by stimulation with serum-starved medium containing 0.1 µM ET-1 or 10 ng/mL recombinant PDGF and treatment with different reagents. The isolated proteins were separated and analyzed by western blotting.
# proteins were then isolated with RIPA buffer (25 mM Tris-HCl [pH 7.6], 150 mM NaCl,
# 1% NP-40, 1% sodium deoxycholate, and 0.1% sodium dodecyl sulfate) containing prote-
# ase inhibitors (Protease Inhibitor Cocktail; Nacalai Tesque, Kyoto, Japan) and phosphatase
# inhibitors (PhosSTOP; Roche, Basel, Switzerland). Proteins from each sample were sepa-
# rated by sodium dodecyl sulfate polyacrylamide gel electrophoresis and transferred onto
# polyvinylidene difluoride (PVDF) membranes. The membranes were then blocked with
# 5% bovine serum albumin diluted in Tris-buffered solution containing 0.05% Tween 20
# (TBS-T) for 1 hour at room temperature. The blocked membranes were incubated with
# primary antibodies at 4°C overnight, followed by washing with TBS-T. The membranes
# were then incubated with a secondary antibody for 1 h at room temperature. Bands were
# visualized by a chemiluminescence reaction using Pierce ECL Western Blotting (Thermo
# Fisher Scientific, Waltham, MA, CSA) and LAS-4000 (Fuji Film, Tokyo, Japan).
# tein expression was normalized to that of -actin.
# [2] = tested on: phosphorylated MYPT1 in hPASMCs; test: Western blot of MYPT1 phosphorylation (Thr696) in ET-1-stimulated hPASMCs; format: cell-based, human; conditions: compound 1 hour, then ET-1 0.1 µM 1 hour, ET-1 did not increase p-MYPT1
# hPASMCs = test: Cell proliferation assay (Cell Counting Kit-8) of PDGF-stimulated hPASMCs; conditions: 0.1–10 µM compound, PDGF 10 ng/mL, 72 h
# Method: Human pulmonary artery SMCs (hPASMCs) were cultured in Humedia-SG2 (Kurabo, Osaka, Japan) until stimulation and were plated in 96-well plates at 2.5 × 10^3 cells/well in serum-starved medium (Humedia-SB supplemented with 1% fetal bovine serum [FBS] and antibiotics [Kurabo]). […] The proliferation of hPASMCs was evaluated using a Cell Counting Kit-8 (Dojindo Laboratories, Kumamoto, Japan).
# hPASMCs were purchased from Kurabo (Osaka, Japan). The cells were cultured in
# 6-cm Petri dishes coated with fibronectin (Corning, Corning, NY, USA) and Humedia-
# SG2 (Kurabo) at 37 °C and 5% CO2 in a humidified air incubator until the other assays
# 2.4. Cell Proliferation Analysis
# hPASMCs were cultured in Humedia-SG2 (Kurabo) until stimulation and were
# plated in 96-well plates at 2.5 × 10^3 cells/well in serum-starved medium (Humedia-SB sup-
# plemented with 1% FBS and antibiotics [Kurabo]). Then, hPASMCs were incubated with
# The proliferation of hPASMCs was evaluated using Cell Counting
# Kit-8 assays (Dojindo Laboratories, Kumamoto, Japan) according to the manufacturer’s
# [3] = tested on: phosphorylation of mTOR in hPASMCs; test: Western blot of mTOR phosphorylation in PDGF-stimulated hPASMCs; conditions: concentration not given, 1 h, then PDGF 10 ng/mL 1 h
Compound,"Phosphorylation of MLC (p-MLC/total MLC) ([1]; concentration not given, 1 h)","Ratio of p-MYPT1 (Thr696) to total MYPT1, difference versus ET-1 without compound [2]",Phosphorylation of MLC (p-MLC/total MLC) ([1]; 10 μM compound 1 h),Proliferation of hPASMCs induced by PDGF (hPASMCs),Phosphorylation of mTOR (phospho-/total mTOR) [3]
COc1ccccc1Oc1c(NS(=O)(=O)c2ccc(C(C)(C)C)cc2)nc(-c2ncccn2)nc1OCCO [Bosentan],the difference did not reach significant levels,insignificant,–,–,–
O=S(=O)(c1cccc2cnccc12)N1CCCNCC1 [Fasudil],–,–,significantly decreased,observed only at the highest concentration,did not have a suppressive effect
O=c1cc(N2CCOCC2)oc2c(-c3ccccc3)cccc12 [LY294002],–,–,–,suppressed the proliferation of hPASMCs induced by stimulation with PDGF in a concentration-dependent manner,significantly reduced
